Assay results published in ChEMBL document CHEMBL2074518, “Multiple systems for the biliary excretion of organic anions in rats: liquiritigenin conjugates as model compounds” (J Pharmacol Exp Ther, 1994).

How the values were obtained:
[1] = molecular target: T1, ATP-binding cassette sub-family C member 2 (Rattus norvegicus, UniProt Q63120); assay: TP_TRANSPORTER: biliary excretion in SD rat; type: functional, organism-based, Sprague-Dawley, Bile; conditions: in vivo
[2] = molecular target: T1, ATP-binding cassette sub-family C member 2; assay: TP_TRANSPORTER: biliary excretion in EHBR rat; type: functional, organism-based, Bile; conditions: in vivo

T1 sequence (Q63120 whole entry): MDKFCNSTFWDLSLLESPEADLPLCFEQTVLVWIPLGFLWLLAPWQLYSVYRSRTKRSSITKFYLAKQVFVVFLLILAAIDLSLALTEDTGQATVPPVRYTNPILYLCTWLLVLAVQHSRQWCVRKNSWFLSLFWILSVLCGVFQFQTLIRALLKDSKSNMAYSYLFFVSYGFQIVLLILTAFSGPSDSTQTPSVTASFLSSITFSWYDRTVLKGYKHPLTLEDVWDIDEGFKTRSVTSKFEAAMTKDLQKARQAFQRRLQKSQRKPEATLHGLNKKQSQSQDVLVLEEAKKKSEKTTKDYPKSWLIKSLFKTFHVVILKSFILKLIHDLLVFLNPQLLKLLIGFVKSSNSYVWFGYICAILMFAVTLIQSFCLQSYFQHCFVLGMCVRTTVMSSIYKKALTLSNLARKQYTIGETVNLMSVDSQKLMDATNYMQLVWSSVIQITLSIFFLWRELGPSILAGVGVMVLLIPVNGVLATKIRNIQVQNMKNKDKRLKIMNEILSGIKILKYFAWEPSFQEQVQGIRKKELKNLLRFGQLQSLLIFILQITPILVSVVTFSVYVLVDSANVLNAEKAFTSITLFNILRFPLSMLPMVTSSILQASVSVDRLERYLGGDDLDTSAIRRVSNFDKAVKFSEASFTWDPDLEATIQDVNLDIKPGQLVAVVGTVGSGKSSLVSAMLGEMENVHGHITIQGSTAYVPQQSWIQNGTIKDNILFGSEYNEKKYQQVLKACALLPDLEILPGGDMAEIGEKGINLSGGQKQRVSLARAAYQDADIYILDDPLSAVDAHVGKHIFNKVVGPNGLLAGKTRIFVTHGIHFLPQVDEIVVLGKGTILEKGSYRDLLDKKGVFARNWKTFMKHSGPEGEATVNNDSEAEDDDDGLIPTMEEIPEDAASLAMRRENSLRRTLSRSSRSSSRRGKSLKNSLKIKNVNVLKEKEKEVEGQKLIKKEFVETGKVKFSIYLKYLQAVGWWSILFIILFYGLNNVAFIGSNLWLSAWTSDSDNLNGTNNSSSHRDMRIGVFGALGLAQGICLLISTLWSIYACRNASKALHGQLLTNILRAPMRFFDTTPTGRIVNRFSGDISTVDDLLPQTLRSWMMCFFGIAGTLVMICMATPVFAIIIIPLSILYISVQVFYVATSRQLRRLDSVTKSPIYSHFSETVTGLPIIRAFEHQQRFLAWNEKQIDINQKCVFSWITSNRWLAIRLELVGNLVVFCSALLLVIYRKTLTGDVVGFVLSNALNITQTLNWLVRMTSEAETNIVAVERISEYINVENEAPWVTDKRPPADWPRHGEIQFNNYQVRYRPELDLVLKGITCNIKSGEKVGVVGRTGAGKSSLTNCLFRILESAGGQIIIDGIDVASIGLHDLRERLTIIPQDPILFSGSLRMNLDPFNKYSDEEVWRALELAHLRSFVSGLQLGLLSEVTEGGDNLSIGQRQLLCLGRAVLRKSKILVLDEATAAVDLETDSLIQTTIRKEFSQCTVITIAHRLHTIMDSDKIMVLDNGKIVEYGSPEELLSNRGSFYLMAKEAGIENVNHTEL

O=C1CC(c2ccc(O[C@@H]3O[C@H](C(=O)O)[C@@H](O)[C@H](O)[C@H]3O)cc2)Oc2cc(O)ccc21 (some centres not stated) [LIQUIRTIGENIN GLUCURONIDE]
Activity [1]: substrate [+] | Activity [2]: substrate [+]
